Experimental data reported in paper PMC10798532, “Enhanced catalytic performance of penicillin G acylase by covalent immobilization onto functionally-modified magnetic Ni0.4Cu0.5Zn0.1Fe2O4 nanoparticles” (PLOS ONE, 2024).
Counter-ions that a name gives are not always drawn.

Tested on: T1, Penicillin G acylase (PGA)
T1 construct: gene pac; alpha and beta subunits arise from one precursor; E. coli is only a guess (docking used PDB 1GM8)
Test: initial hydrolysis rates, Lineweaver-Burk; 6-APA by PDAB colorimetry at […] nm
Format: biochemical
Settings: free enzyme; 20 °C; PBS, pH of kinetic run not printed (optimum pH 8.0); substrate 0.01-0.05 mol/L

Work on `CC1(C)S[C@@H]2[C@H](NC(=O)Cc3ccccc3)C(=O)N2[C@H]1C(=O)O` [Penicillin G potassium salt] yielded a Km of 22.7 mM.
